For 19 compounds, IC50 and logD results are on record in patent publication US20240123080A1, “CYTOTOXIC COMPOUNDS AND CONJUGATES THEREOF” (Seagen Inc., priority 2022, published 2024).

A word on the pIC50: it is the IC50 on a negative log10 scale, so that one unit is a factor of ten. Lower therefore signals a high IC50. As usually defined, the logD is lipophilicity at a set pH, counting ionised and neutral species. The low end stands for a more hydrophilic compound, the high end for a more lipophilic compound.

pIC50: −log10 of the molar value. Where a SMILES comes first, the peptide text is derived from it. [ ]: non-standard residue; d: D form. The star is where a group is joined. Dolaproine = CO[C@@H]([C@@H]1CCCN1)[C@@H](C)C(=O)O; Dil = CC[C@H](C)[C@H](NC)[C@@H](CC(=O)O)OC; Tyrosinol = OC[C@H](Cc1ccc(O)cc1)N*; Val(3-OH) = CC(C)(O)[C@H](N)C(=O)O; Doe = c1ccc(C[C@H](N*)c2nccs2)cc1; X1 = C[C@@H](N*)[C@@H](O)c1ccccc1; Phe(ol) = N[C@H](CO)Cc1ccccc1; X4 = CN1C(=O)OC(C)(C)C1C(=O)*; X8 = CN1C(=O)OC[C@H]1C(=O)*; NMeS = CN[C@@H](CO)C(=O)O; dNMeS = CN[C@H](CO)C(=O)O; hSer = N[C@@H](CCO)C(=O)O; X7 = O=C1NC(C(=O)*)CCO1

The subject of data set [1] is DEL ALCL. The data set can be described thus: In vitro cytotoxicity, cell proliferation assay (CellTiter-Glo, 96 h). In kind it is cell-based. The settings on record: auristatin free drug. As for the experimental part: (§1) The cytotoxicity of free drugs and drug conjugates were measured by a cell proliferation assay employing the protocol described in Promega Corp. Technical Bulletin TB288; and Mendoza et al., 2002, Cancer Res. 62:5485-5488), the methods of which are specifically incorporated by reference herein. Briefly, an aliquot of 40 μl of cell culture containing about 400 cells in medium is deposited in each well of a 384-well, opaque-walled plate. A 10 μL aliquot of free drug or drug conjugate is added to the experimental wells and incubated for 96 h and are then equilibrated to room temperature for approximately 30 minutes whereupon a volume of CellTiter-Glo™ reagent equal to the volume of cell culture medium present in each well is added. The contents are mixed for 2 minutes on an orbital shaker to induce cell lysis and the plate is incubated at room temperature for 10 minutes to stabilize the luminescence signal for recordation.
Background: Cellular ATP, detected with luciferase, serves as a proxy for viable cell number.

Data set [2] relates to L540cy HL. The data set is described as above. It counts as cell-based. The settings on record: auristatin free drug. As for the experimental part: as §1
Data set [3] concerns Karpas299 NHL. The description is as above. It counts as cell-based. To be noted: Homo sapiens, KARPAS-299, auristatin free drug. As for the experimental part:
as §1

A short description of data set [4]: LogD, miniaturized 1-octanol/pH 7.4 buffer shake flask method, LC/MS/MS. It counts as physicochemical. As for the experimental part:
The LogD (distribution coefficient) of the compounds was measured using a miniaturized 1-octanol/pH 7.4 buffer shake flask method followed by LC/MS/MS analysis. Values were determined by measuring the compound partitioned in the organic and buffered layers.

With `CC[C@H](C)[C@@H]([C@@H](CC(=O)N1CCC[C@H]1[C@H](OC)[C@@H](C)C(=O)N[C@@H](Cc1ccccc1)c1nccs1)OC)N(C)C(=O)[C@@H](NC(=O)[C@H](CO)NC)[C@@H](C)CC` [Example 20] (H-[NMeS]I[Dil][Dolaproine]-Doe), the pIC50 was 9.52 in data set [1], 8.33 in data set [2] and 9.00 in data set [3]. This compound also showed a logD in data set [4] of 1.9.
For `CC[C@H](C)[C@@H]([C@@H](CC(=O)N1CCC[C@H]1[C@H](OC)[C@@H](C)C(=O)N[C@H](CO)Cc1ccccc1)OC)N(C)C(=O)[C@@H](NC(=O)[C@H](CO)NC)C(C)C` [Example 12] (H-[NMeS]V[Dil][Dolaproine][Phe(ol)]), in that order: 8.96, 8.32, 9.52 and 1.2.
Take `CC[C@H](C)[C@@H]([C@@H](CC(=O)N1CCC[C@H]1[C@H](OC)[C@@H](C)C(=O)N[C@H](CO)Cc1ccc(O)cc1)OC)N(C)C(=O)[C@@H](NC(=O)[C@@H](N)C(C)(C)O)C(C)C` [Example 30] (H-[Val(3-OH)]V[Dil][Dolaproine]-Tyrosinol): the results for the pIC50 in data set [1], in data set [2] and in data set [3] were 6.40, below 6.00 and 6.32, respectively. The compound further showed a logD in data set [4] of 1.2.
For `CC[C@H](C)[C@@H]([C@@H](CC(=O)N1CCC[C@H]1[C@H](OC)[C@@H](C)C(=O)N[C@H](CO)Cc1ccccc1)OC)N(C)C(=O)[C@@H](NC(=O)[C@@H](N)C(C)(C)O)C(C)C` [Example 29] (H-[Val(3-OH)]V[Dil][Dolaproine][Phe(ol)]), in that order: 7.90, 7.24, 7.86 and 2.
On the same counts, the results for `CC[C@H](C)[C@@H]([C@@H](CC(=O)N1CCC[C@H]1[C@H](OC)[C@@H](C)C(=O)N[C@H](C)[C@@H](O)c1ccccc1)OC)N(C)C(=O)[C@@H](NC(=O)C[C@@H](N)CO)C(C)C` [Example 32] are 7.19, 6.04, 7.25 and 0.3.
Turning to `CC[C@H](C)[C@@H]([C@@H](CC(=O)N1CCC[C@H]1[C@H](OC)[C@@H](C)C(=O)N[C@H](CO)Cc1ccccc1)OC)N(C)C(=O)[C@@H](NC(=O)[C@@H](CO)NC)C(C)C` [Example 14] (H-[dNMeS]V[Dil][Dolaproine][Phe(ol)]), the pIC50 in data set [1] was 8.46; in data set [2], 8.00; in data set [3], 8.13. Moreover, in data set [4], the logD worked out at 1.1.
Turning to `CC[C@H](C)[C@@H]([C@@H](CC(=O)N1CCC[C@H]1[C@H](OC)[C@@H](C)C(=O)N[C@H](CO)Cc1ccccc1)OC)N(C)C(=O)[C@@H](NC(=O)C1N(C)C(=O)OC1(C)C)C(C)C` (stereo partly drawn) [Example 43] (X4-V[Dil][Dolaproine][Phe(ol)]), the pIC50 in data set [1] is 8.49; in data set [2], 7.72; in data set [3], 8.23.
For `CC[C@H](C)[C@@H]([C@@H](CC(=O)N1CCC[C@H]1[C@H](OC)[C@@H](C)C(=O)N[C@H](CO)Cc1ccccc1)OC)N(C)C(=O)[C@@H](NC(=O)[C@@H](N)CO)C(C)C` [Example 23] (H-SV[Dil][Dolaproine][Phe(ol)]), in that order: 7.77, 6.18 and 7.18.
On the same counts, the results for `CC[C@H](C)[C@@H]([C@@H](CC(=O)N1CCC[C@H]1[C@H](OC)[C@@H](C)C(=O)N[C@H](CO)Cc1ccccc1)OC)N(C)C(=O)[C@@H](NC(=O)[C@@H](N)CCO)C(C)C` [Example 24] (H-[hSer]V[Dil][Dolaproine][Phe(ol)]) are 7.89, 6.21 and 7.37.
For `CC[C@H](C)[C@@H]([C@@H](CC(=O)N1CCC[C@H]1[C@H](OC)[C@@H](C)C(=O)N[C@@H](Cc1ccccc1)[C@@H](O)CO)OC)N(C)C(=O)[C@@H](NC(=O)[C@H](CO)N(C)C)C(C)C` [Example 57], in that order: 8.40, 7.31 and 8.52.
Turning to `CC[C@H](C)[C@@H]([C@@H](CC(=O)N1CCC[C@H]1[C@H](OC)[C@@H](C)C(=O)N[C@H](C)[C@@H](O)c1ccccc1)OC)N(C)C(=O)[C@@H](NC(=O)[C@H](N)CO)C(C)C` [Example 26] (H-[dS]V[Dil][Dolaproine]-X1), the pIC50 in data set [1] is 8.38; in data set [2] it was 7.70; in data set [3], 8.30.
On the same counts, the results for `CC[C@H](C)[C@@H]([C@@H](CC(=O)N1CCC[C@H]1[C@H](OC)[C@@H](C)C(=O)N[C@@H](Cc1ccccc1)C(=O)O)OC)N(C)C(=O)[C@@H](NC(=O)[C@H](CO)NC)C(C)C` [Comparative Example A, reference compound] (H-[NMeS]V[Dil][Dolaproine]F-OH) are 6.68, below 6.00 and 6.60.
On the same counts, the results for `CC[C@H](C)[C@@H]([C@@H](CC(=O)N1CCC[C@H]1[C@H](OC)[C@@H](C)C(=O)N[C@H](C)[C@@H](O)c1ccccc1)OC)N(C)C(=O)[C@@H](NC(=O)[C@@H](CO)N(C)C)C(C)C` [Example 11] are 9.00, 8.22 and 9.00.
On the same counts, the results for `CC[C@H](C)[C@@H]([C@@H](CC(=O)N1CCC[C@H]1[C@H](OC)[C@@H](C)C(=O)N[C@H](CO)Cc1ccccc1)OC)N(C)C(=O)[C@@H](NC(=O)[C@@H]1COC(=O)N1C)C(C)C` [Example 36] (X8-V[Dil][Dolaproine][Phe(ol)]) are 8.17, 6.71 and 7.57.
Turning to `CC[C@H](C)[C@@H]([C@@H](CC(=O)N1CCC[C@H]1[C@H](OC)[C@@H](C)C(=O)N[C@H](CO)Cc1ccccc1)OC)N(C)C(=O)[C@@H](NC(=O)C[C@@H](NC)[C@@H](C)O)C(C)C` [Example 22], the pIC50 is 8.24 in data set [1], 7.80 in data set [2] and 7.89 in data set [3].
On the same counts, the results for `CC[C@H](C)[C@@H]([C@@H](CC(=O)N1CCC[C@H]1[C@H](OC)[C@@H](C)C(=O)NC(CO)Cn1ccnn1)OC)N(C)C(=O)[C@@H](NC(=O)[C@H](CO)N(C)C)C(C)C` (stereo partly drawn) [Example 53] are below 6.00, below 6.00 and below 6.00.
For `CC[C@H](C)[C@@H]([C@@H](CC(=O)N1CCC[C@H]1[C@H](OC)[C@@H](C)C(=O)NCCc1ccccc1)OC)N(C)C(=O)[C@@H](NC(=O)[C@@H]1COC(=O)N1C)C(C)C` [Example 38], the pIC50 in data set [1] was 6.83; in data set [2], 6.29; in data set [3] it was below 6.00.
Regarding `CC[C@H](C)[C@@H]([C@@H](CC(=O)N1CCC[C@H]1[C@H](OC)[C@@H](C)C(=O)N[C@H](C)[C@@H](O)c1ccccc1)OC)N(C)C(=O)[C@@H](NC(=O)[C@H](N)[C@H](C)O)C(C)C` [Example 27] (H-[dT]V[Dil][Dolaproine]-X1), the figures for the negative logarithm of the IC50 (pIC50) in data set [1], in data set [2] and in data set [3] were 8.72, 7.89 and 8.64, respectively.
As to `CC[C@H](C)[C@@H]([C@@H](CC(=O)N1CCC[C@H]1[C@H](OC)[C@@H](C)C(=O)N[C@H](CO)Cc1ccccc1)OC)N(C)C(=O)[C@@H](NC(=O)C1CCOC(=O)N1)C(C)C` (stereo partly drawn) [Example 41] (X7-V[Dil][Dolaproine][Phe(ol)]), the figures for the pIC50 in data set [1], in data set [2] and in data set [3] were 7.82, 6.34 and 7.21, respectively.
